Test results published in patent publication US20250034138A1, “Compounds and Compositions as C-Kit Kinase Inhibitors” (Enanta Pharmaceuticals, Inc., priority 2023, published 2025).

Legend:
[1] = biological target: T1, Recombinant human c-KIT kinase (Homo sapiens, UniProt P10721); assay: c-KIT Kinase Chemiluminescence Assay (ADP-Glo); type: biochemical; details: recombinant human c-KIT 30-40 nM, ATP 50 μM, polyEY substrate, ADP-Glo luminescence
T1 construct: purchased Promega V4498
Description: Staurosporine (AM-2282) and Imatinib (STI571) were purchased from Selleck Chemicals LLC (Houston, TX). The c-KIT reference compound THB001 (EP-053504) was synthesized by Enanta Pharmaceuticals, Inc. (Watertown, MA). The c-KIT Kinase Enzyme System (V4498) and ADP-Glo™ Kinase Assay kit (V6930) were purchased from Promega (Madison, WI). DMSO (D2650) was purchased from Sigma-Aldrich (Burlington, MA). ECHO-650 acoustic liquid handling system (67492212) and 384-well LDV ECHO source plates (LP-0200) were purchased from Labcyte, Inc (San Jose, CA). Envision Multimode Plate Reader (2104/464466) and ProxiPlate-384 Plus White 384-shallow well microplates (6008280) were purchased from PerkinElmer (Waltham, MA).
1. c-KIT Kinase Chemiluminescence Assay:
IC50 determination. Test compounds were dispersed into a 384-well low volume while ProxiPlate microplate from a DMSO solution using an ECHO 650 acoustic dispenser to generate a 11-point, 3.162-fold dilution, concentration curve starting at 10 μM in duplicate. Kinase Reaction: The kinase assay was based on the recommended protocol by c-KIT Kinase Enzyme System from Promega. Recombinant human c-KIT kinase in 3 μL of assay buffer (40 mM Tris pH 7.5, 20 mM MgCl2, 0.1 mg/mL BSA and 50 μM DTT) was added to the test or high control wells and 3 μL of assay buffer was added to the low control wells. The microplate was centrifuged at 800 rotations per minute (rpm) for 60 s and incubated at room temperature (RT) for 30 min. Next, 2 μL of buffered ATP and polyEY substrate solution was added to all wells. The microplate was centrifuged at 800 rpm for 60 s and incubated at RT for 2 h. The final assay contained c-KIT (30-40 nM), ATP (50 μM), polyEY substrate (0.2 μg/μL), test compounds (0-10 μM) and DMSO (1.7%) in 5 μL assay buffer. ADP detection with ADP-Glo™ Kinase Assay: After the kinase reaction incubation, 5 μL of ADP-Glo™ reagent was added to all wells. The microplate was centrifuged at 800 rpm for 60 s and incubated at RT for 40 min. Ten microliter (10 μL) of Kinase Detection Reagent (Luciferin-Luciferase system) was then added to all wells. The microplate was centrifuged at 800 rpm for 60 s and incubated at RT for 60 min. Kinase activity was measured as increase in luminescence at RT in an Envision plate reader equipped with 560 nm filters and operating in endpoint mode.
Data Analysis: Endpoint chemiluminescence from high and low control wells were used to calculate normalized c-KIT activity at various concentrations of test compounds. The normalized activities were fitted to inhibitor-versus-normalized response fit in GraphPad Prism 7 to determine half-maximal inhibitory concentration (IC50) and hill coefficient values (H).
c-KIT activity (%)=100/(1+I^H/IC50^H). Where I is the inhibitor concentration and H is the Hill coefficient. IC50 ranges are reported as follows: A<100 nM; B 0.1-1 μM; C>1 μM.

[2] = test system: M-07e cells which endogenously express human c-KIT; assay: M-07e Cellular Assay (SCF-mediated cell proliferation, CellTiter Glo); type: cell-based; details: SCF (EC90)-stimulated M-07e cell proliferation, 72 hours, CellTiter Glo, read-out: M-07e EC50
Description: 2. M-07e Cellular Assay M-07e cells (Creative Bioarray, CSC-CO249) which endogenously express human c-KIT were used to evaluate the effect of compounds on stem cell factor (SCF)-mediated cell proliferation. M-07e cells were cultured in growth media (RPMI+10% FBS+1% penicillin/streptomycin+10 ng/mL GM-CSF) at 5E5-1.5E6 cells/mL, replenishing media every 3-4 days. 1.5E4 cells were seeded per well in 384 well tissue culture treated plates in 20 μL assay media (RPMI+10% FBS+1% penicillin/streptomycin) without growth factor stimulation and incubated at 37° C. in a CO2 humidity-controlled incubator. Twenty-four hours later, three-fold serially diluted test compounds in media containing SCF (at the previously determined EC90) were added to the plated M-07e cells and incubated for an additional 72 hours. Cell viability was determined by adding 25 μL CellTiter Glo (Promega) to the cells and the luminescence was measured using a Perkin Elmer Envision plate reader. The EC50 was determined using GraphPad Prism. […] EC50 ranges are reported as follows: […]

T1 sequence (P10721 26-976): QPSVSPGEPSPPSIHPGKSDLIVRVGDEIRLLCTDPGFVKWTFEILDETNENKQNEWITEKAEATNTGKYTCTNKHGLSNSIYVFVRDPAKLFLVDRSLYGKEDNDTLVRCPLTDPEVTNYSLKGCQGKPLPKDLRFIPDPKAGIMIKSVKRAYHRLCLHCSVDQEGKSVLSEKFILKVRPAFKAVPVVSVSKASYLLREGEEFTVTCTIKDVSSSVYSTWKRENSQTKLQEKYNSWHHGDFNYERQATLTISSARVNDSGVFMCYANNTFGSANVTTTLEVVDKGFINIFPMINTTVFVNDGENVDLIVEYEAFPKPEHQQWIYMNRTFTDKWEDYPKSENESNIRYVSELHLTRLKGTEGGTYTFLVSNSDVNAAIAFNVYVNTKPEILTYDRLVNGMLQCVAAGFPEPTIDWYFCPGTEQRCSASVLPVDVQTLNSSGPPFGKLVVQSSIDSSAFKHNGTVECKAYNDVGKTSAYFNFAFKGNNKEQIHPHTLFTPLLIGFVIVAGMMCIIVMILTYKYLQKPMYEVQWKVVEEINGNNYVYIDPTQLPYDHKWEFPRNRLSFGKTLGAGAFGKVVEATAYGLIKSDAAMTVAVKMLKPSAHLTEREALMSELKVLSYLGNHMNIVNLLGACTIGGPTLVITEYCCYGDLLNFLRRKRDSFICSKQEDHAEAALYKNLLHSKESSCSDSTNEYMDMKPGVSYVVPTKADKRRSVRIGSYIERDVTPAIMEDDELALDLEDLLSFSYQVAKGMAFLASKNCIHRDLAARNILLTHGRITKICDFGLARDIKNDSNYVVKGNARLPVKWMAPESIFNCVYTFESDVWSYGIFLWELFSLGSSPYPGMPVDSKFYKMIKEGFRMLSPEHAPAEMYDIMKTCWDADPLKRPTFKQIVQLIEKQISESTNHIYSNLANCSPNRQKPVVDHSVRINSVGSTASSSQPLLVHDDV

Structure (SMILES)	IC50 [1]	EC50 [2]
Cc1ccc(-c2nnc(C3CC(F)(F)C3)s2)cc1NC(=O)c1cnc2ccccn12 [Example 1-1]	< 100 nM	< 100 nM
Cc1ccc(-c2nnc([C@H]3C[C@@H]3F)s2)cc1NC(=O)c1cnc2ccccn12 [Example 1]	< 100 nM	< 100 nM
Cc1ccc(-c2nnn(C3CC3)n2)cc1NC(=O)c1cnc2ccccn12 [Example 2]	100 to 1000 nM	< 100 nM
Cc1ccc(-c2nnn(C3CC(F)(F)C3)n2)cc1NC(=O)c1cnc2ccccn12 [Example 3]	< 100 nM	< 100 nM
Cc1ccc(-c2nc(C3CC(F)(F)C3)cs2)cc1NC(=O)c1cnc2ccccn12 [Example 4]	< 100 nM	100 to 1000 nM
Cc1ccc(-c2nnc(C3CC3)n2C2CC2)cc1NC(=O)c1cnc2ccccn12 [Example 5]	> 1000 nM	> 1000 nM
Cc1ccc(-c2nc(C3CC3)nn2C)cc1NC(=O)c1cnc2ccccn12 [Example 6-1]	> 1000 nM	100 to 1000 nM
Cc1ccc(-c2nc3ccc(F)cn3n2)cc1NC(=O)c1cnc2ccccn12 [Example 6-2]	< 100 nM	< 100 nM
Cc1ccc(-c2nc3ccc(Cl)cn3n2)cc1NC(=O)c1cnc2ccccn12 [Example 6-3]	< 100 nM	< 100 nM
Cc1ccc(-c2cn3c(n2)CCCC3)cc1NC(=O)c1cnc2ccccn12 [Example 6-4]	100 to 1000 nM	< 100 nM
Cc1ccc(-c2cn3c(n2)CCC3)cc1NC(=O)c1cnc2ccccn12 [Example 6-5]	100 to 1000 nM	100 to 1000 nM
Cc1ccc(-c2nc3cc(F)ccn3n2)cc1NC(=O)c1cnc2ccccn12 [Example 6-6]	< 100 nM	< 100 nM
Cc1ccc(-c2nc3ccccn3n2)cc1NC(=O)c1cnc2ccccn12 [Example 6-7]	> 1000 nM	
Cc1ccc(-c2nc3n(n2)[C@@H](c2ccccc2)C[C@H]3F)cc1NC(=O)c1cnc2ccccn12 [Example 6-8]	100 to 1000 nM	100 to 1000 nM
Cc1ccc(-c2nc3ccc(C(F)(F)F)cn3n2)cc1NC(=O)c1cnc2ccccn12 [Example 6-9]	< 100 nM	< 100 nM
Cc1ccc(-c2nc3cccc(C(F)(F)F)n3n2)cc1NC(=O)c1cnc2ccccn12 [Example 6-10]	100 to 1000 nM	100 to 1000 nM
Cc1ccc(-c2nnc3n2CCCC3)cc1NC(=O)c1cnc2ccccn12 [Example 6-11]	> 1000 nM	
Cc1ccc(-c2nc3n(n2)CCCC3)cc1NC(=O)c1cnc2ccccn12 [Example 6-12]	100 to 1000 nM	100 to 1000 nM
Cc1ccc(-c2nc3n(n2)CCN(C(=O)OC(C)(C)C)C3)cc1NC(=O)c1cnc2ccccn12 [Example 6-13]	< 100 nM	100 to 1000 nM
Cc1ccc(-c2nc3cc(C(F)(F)F)ccn3n2)cc1NC(=O)c1cnc2ccccn12 [Example 6-14]	< 100 nM	< 100 nM
Cc1ccc(-c2nc3cc(Cl)ccn3n2)cc1NC(=O)c1cnc2ccccn12 [Example 6-15]	< 100 nM	100 to 1000 nM

Structure (SMILES)	IC50 [1]	EC50 [2]
Cc1ccc(-c2nc3n(n2)CCNC3)cc1NC(=O)c1cnc2ccccn12 [Example 6-16]	100 to 1000 nM	> 1000 nM
Cc1ccc(-c2nc3n(n2)CCN(C(=O)[C@H]2C[C@@H]2F)C3)cc1NC(=O)c1cnc2ccccn12 [Example 6-18]	100 to 1000 nM	100 to 1000 nM
Cc1ccc(-c2nc3n(n2)CCN(C(=O)C2CC(F)(F)C2)C3)cc1NC(=O)c1cnc2ccccn12 [Example 6-19]	100 to 1000 nM	
Cc1ccc(-c2nc3n(n2)CCN(C(=O)[C@H]2[C@@H]4CC(F)(F)C[C@@H]42)C3)cc1NC(=O)c1cnc2ccccn12 [Example 6-20]	> 1000 nM	
Cc1ccc(-c2nc3n(n2)C[C@H](C(F)(F)F)CC3)cc1NC(=O)c1cnc2ccccn12 [Example 6-21]	< 100 nM	< 100 nM
Cc1ccc(-c2nc3cc(C4CC4)ccn3n2)cc1NC(=O)c1cnc2ccccn12 [Example 6-23]	< 100 nM	< 100 nM
Cc1ccc(-c2nc3ccc(C4CC4)cn3n2)cc1NC(=O)c1cnc2ccccn12 [Example 6-24]	< 100 nM	< 100 nM
Cc1ccc(-c2nc(C3CC3)n(C)n2)cc1NC(=O)c1cnc2ccccn12 [Example 6]	100 to 1000 nM	100 to 1000 nM
Cc1ccc(-c2cn(C3CC(F)(F)C3)nn2)cc1NC(=O)c1cnc2ccccn12 [Example 7]	< 100 nM	< 100 nM
Cc1ccc(-n2nnc(C3CC(F)(F)C3)n2)cc1NC(=O)c1cnc2ccccn12 [Example 8]	< 100 nM	< 100 nM
Cc1ccc(-n2nnc(-c3ccc(F)cc3)n2)cc1NC(=O)c1cnc2ccccn12 [Example 9-1]	100 to 1000 nM	100 to 1000 nM
Cc1ccc(-n2nnc(-c3cccc(F)c3)n2)cc1NC(=O)c1cnc2ccccn12 [Example 9-2]	100 to 1000 nM	100 to 1000 nM
Cc1ccc(-c2coc(C3CC(F)(F)C3)n2)cc1NC(=O)c1cnc2ccccn12 [Example 10]	< 100 nM	< 100 nM
Cc1ccc(-c2coc([C@H]3C[C@@H]3F)n2)cc1NC(=O)c1cnc2ccccn12 [Example 11-1]	100 to 1000 nM	< 100 nM
Cc1ccc(-c2nc3cc(F)ccc3o2)cc1NC(=O)c1cnc2ccccn12 [Example 11-2]	< 100 nM	< 100 nM
Cc1ccc(-c2nc3ccccc3o2)cc1NC(=O)c1cnc2ccccn12 [Example 11-3]	100 to 1000 nM	< 100 nM
Cc1ccc(-c2nc3ccccc3s2)cc1NC(=O)c1cnc2ccccn12 [Example 11-4]	< 100 nM	100 to 1000 nM
Cc1ccc(-c2nc3ccc(F)cc3o2)cc1NC(=O)c1cnc2ccccn12 [Example 11-5]	100 to 1000 nM	100 to 1000 nM
Cc1ccc(-c2nc3ccccc3[nH]2)cc1NC(=O)c1cnc2ccccn12 [Example 11-6]	< 100 nM	< 100 nM
Cc1ccc(-c2nc3ccccc3n2C)cc1NC(=O)c1cnc2ccccn12 [Example 11-7]	> 1000 nM	100 to 1000 nM
Cc1ccc(-c2ncc(C3CC(F)(F)C3)n2COCC[Si](C)(C)C)cc1NC(=O)c1cnc2ccccn12 [Example 11-11]	> 1000 nM	
